# Results taken from patent US8754106B2, “Macrocyclic inhibitors of hepatitis C virus” (Tibotec Pharmaceuticals Ltd., priority 2005, dated 2014).
# Assays:
# [1] = Oral pharmacokinetics of Compound nr. 47 in rat with ritonavir boosting; format: in vivo, Sprague-Dawley rats; details: single oral 10 mg/kg Compound nr. 47 in 50% PEG400/water, boosted with 10 mg/kg ritonavir about 30 minutes before, plasma
# Experimental: Oral pharmacokinetics of Compound nr. 47 in male and female Sprague-Dawley rats after a single dose at 10 mg/kg, using a formulation in 50% PEG400/water and the influence of “boosting” with 10 mg/kg ritonavir were investigated.
# Four male and four female Sprague-Dawley (SD)-rats (approx. body weight 200-250 g) were randomly divided into 2 groups of 2 males and females each (boosted and non-boosted) based on body weight. […] The animals were fasted shortly before the trial. Drinking water remained available ad libitum.
# Rats from the non-boosted group received a single oral 10 mg/kg dose of Compound nr. 47, formulated as a 3 mg/ml 50% PEG400/water at pH 8. Rats from the boosted group received a single oral dose of ritonavir, about 30 minutes before single oral dosing with 10 mg/kg of Compound nr. 47. The drug formulations were administered by oral gavage.
# From each rat, a 0.5 ml blood sample was collected at 0.5 h, 1 h, 2 h, 4 h and 8 h after dosing. Plasma concentrations were determined using HPLC-MS. Results are shown in the table 2 below, expressed as fold change in pharmacokinetic parameter of the boosted group as compared to the non-boosted group.
# [2] = system: HCV replicons (Huh-Luc cells, NS3-NS5B regions of HCV type Ib); assay: Replicon assay (Huh-7 luc/neo cells, luciferase readout); format: cell-based; details: three days incubation, luciferase activity
# From the text: The compounds of formula (I) were examined for activity in the inhibition of HCV RNA replication in a cellular assay. […] The cellular assay was based on a bicistronic expression construct, as described by Lohmann et al. (1999) Science vol. 285 pp. 110-113 with modifications described by Krieger et al. (2001) Journal of Virology 75: 4614-4624, in a multi-target screening strategy. In essence, the method was as follows.
# The assay utilized the stably transfected cell line Huh-7 luc/neo (hereafter referred to as Huh-Luc). This cell line harbors an RNA encoding a bicistronic expression construct comprising the wild type NS3-NS5B regions of HCV type Ib translated from an Internal Ribosome Entry Site (IRES) from encephalomyocarditis virus (EMCV), preceded by a reporter portion (FfL-luciferase), and a selectable marker portion (neo^R, neomycine phosphotransferase). The construct is bordered by 5′ and 3′ NTRs (non-translated regions) from HCV type Ib. Continued culture of the replicon cells in the presence of G418 (neo^R) is dependent on the replication of the HCV RNA. The stably transfected replicon cells that express HCV RNA, which replicates autonomously and to high levels, encoding inter alia luciferase, are used for screening the antiviral compounds.
# The replicon cells were plated in 384 well plates in the presence of the test and control compounds which were added in various concentrations. Following an incubation of three days, HCV replication was measured by assaying luciferase activity (using standard luciferase assay substrates and reagents and a Perkin Elmer ViewLux™ ultraHTS microplate imager). Replicon cells in the control cultures have high luciferase expression in the absence of any inhibitor. The inhibitory activity of the compound on luciferase activity was monitored on the Huh-Luc cells, enabling a dose-response curve for each test compound.
# [3] = target: HCV NS3/4A protease (Hepatitis C virus genotype 1a (isolate H77) (HCV), UniProt P27958); assay: Inhibition assay (enzymatic assay), depsipeptide substrate hydrolysis; format: biochemical; details: full-length NS3 protease 1 nM, 25 μM NS4A cofactor, 0.5 μM substrate, competitive inhibition model
# HCV NS3/4A protease, sequence (P27958 1027-1657): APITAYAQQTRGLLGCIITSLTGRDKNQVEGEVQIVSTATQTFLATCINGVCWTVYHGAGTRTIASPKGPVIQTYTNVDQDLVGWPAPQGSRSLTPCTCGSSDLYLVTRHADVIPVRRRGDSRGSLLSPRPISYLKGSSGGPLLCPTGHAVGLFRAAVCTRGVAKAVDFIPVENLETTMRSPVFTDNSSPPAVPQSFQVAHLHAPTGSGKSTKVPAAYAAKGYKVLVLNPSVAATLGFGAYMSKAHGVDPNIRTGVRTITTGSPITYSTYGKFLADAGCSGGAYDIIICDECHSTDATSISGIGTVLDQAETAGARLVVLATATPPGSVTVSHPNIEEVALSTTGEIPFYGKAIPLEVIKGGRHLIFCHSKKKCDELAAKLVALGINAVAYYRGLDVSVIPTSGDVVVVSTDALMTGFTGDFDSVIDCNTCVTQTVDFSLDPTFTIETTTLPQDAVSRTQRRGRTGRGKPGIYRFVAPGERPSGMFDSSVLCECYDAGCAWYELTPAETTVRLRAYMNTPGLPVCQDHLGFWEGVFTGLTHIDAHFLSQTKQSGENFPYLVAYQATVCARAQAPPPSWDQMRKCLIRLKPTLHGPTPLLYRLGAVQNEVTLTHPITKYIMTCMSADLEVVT
# Experimental: [Landro, 1997 #Biochem 36 9340-9348]. […] The solutions were stored at −20° C. between measurements.
# [Liu, 1999 Analytical Biochemistry 267 331-335].
"Cmax, fold change of the boosted group as compared to the non-boosted group [1] [fold]",Compound,"EC50 ([2]; Hepatitis C virus, Huh-7, 72 h) [µM]",Ki [3] [nM],EC50 [2] [µM]
2.2,"COc1ccc2c(O[C@@H]3C[C@H]4C(=O)N[C@]5(C(=O)NS(=O)(=O)C6CC6)C[C@H]5/C=C\CCCCN(C)C(=O)[C@@H]4C3)cc(-c3nc(C(C)C)cs3)nc2c1C [Compound 47, N-[17-[2-(4-isopropylthiazole-2-yl)-7-methoxy-8-methylquinolin-4-yloxy]-13-methyl-2,14-dioxo-3,13-diazatricyclo[13.3.0.0^4,6]octadec-7-ene-4-carbonyl](cyclopropyl)sulfonamide]",–,–,–
–,CCc1c(OC)ccc2c(O[C@@H]3C[C@H]4C(=O)N[C@]5(C(=O)O)C[C@H]5/C=C\CCCCN(C)C(=O)[C@@H]4C3)cc(-c3nc(C(C)C)cs3)nc12 [Compound 71],10,–,–
–,COc1ccc2c(O[C@H]3C[C@H]4C(=O)NCCCCC/C=C\[C@@H]5C[C@@]5(C(=O)O)NC(=O)[C@@H]4C3)cc(-c3nc(C(C)C)cs3)nc2c1C [Compound 81],10,1000,–
–,"N-[[18-[2-[4-(isopropyl)thiazol-2-yl]-7-methoxy-8-methylquinolin-4-yloxy]-2,15-dioxo-3,14,16-triazatricyclo[14.3.0.0^4,6]nonadec-7-en-4-yl]carbonyl]-(cyclopropyl)sulfonamide [Compound 91]",–,0.05,0.00854
